Test system: M. tuberculosis H37Rv growth inhibition
Test: M. tuberculosis H37Rv growth inhibitors, H37Rv strain (AID 1626)
Conditions: for IC90: measured here: IC90 against H37Rv; for CC50: measured here: Vero cell cytotoxicity

Row | SMILES | IC50 [µM] | IC90 [µM] | CC50 [µM]
1 | O=c1[nH][nH]c(-c2ccccc2O)c1C(C[N+](=O)[O-])c1ccc(Cl)cc1Cl (stereo unspecified) | 10.5 | 15 | > 40
2 | CC(=O)Nc1ccc(Nc2cc(C)nc3c(-c4ccccc4)c(C)nn23)cc1 | – | > 100 | > 40
3 | COc1ccc(N2CCN(C(=O)CN3CCN(c4nc(-c5ccc(F)cc5)cs4)CC3)CC2)cc1 | – | – | > 40
4 | O=c1c2c(nc3c(-c4ccc(Cl)cc4)c[nH]n13)CCC2 | 12.9 | 25.6 | 18.9
5 | O=C(/C=C/c1cn(CC(O)CN2CCCCCC2)c2ccccc12)c1cccs1 (stereo unspecified) | 0.993 | 1.95 | 20
6 | O=C(Nc1ccc(-c2csc(Nc3cccc(C(F)(F)F)c3)n2)cc1)c1cc([N+](=O)[O-])cc(C(F)(F)F)c1 | 7.37 | > 100 | 20.2
7 | Nc1nc(N)c2cc(Sc3ccc4ccccc4c3)ccc2n1 | 1.61 | 3.16 | 1.01
8 | Cc1cc(C)nc(/N=C(\N)Nc2ccc(-c3ccccc3)cc2)n1 | 2.74 | 11 | > 40
9 | COc1cccc(-c2nnc(Nc3nc4c(F)cccc4s3)o2)c1 | 1.56 | 51.8 | > 40
10 | N#C/C(=C\c1ccccn1)c1nc2ccccc2s1 | 14.9 | > 100 | > 40
11 | N=C(N)c1ccc(OCCCCCOc2ccc(C(=N)N)cc2)cc1 | 1.51 | 1.72 | > 40
12 | Cc1ccc(C(=O)/C=C/c2ccc(-c3ccc(C)cc3)o2)cc1 | – | – | 21.9
13 | COCc1cc(S(=O)c2ccc(Cl)cc2)nc(C)n1 (stereo unspecified) | 15.1 | 24.3 | 22.1
14 | O=C(CSc1nnc(-c2ccccc2Br)o1)N1CCc2ccccc2C1 | 2.32 | 3.38 | –
15 | CCOc1ccc(NC(=O)CCN2CCN(c3ccccc3F)CC2)cc1 | 36.3 | > 100 | –
16 | Cc1ccccc1-n1c(O)c(C=Nc2ccc3c(c2)OCO3)c(=O)[nH]c1=O | – | > 100 | –
17 | C#CCn1c(=NC(=O)c2cc(Cl)sc2Cl)sc2cc(S(N)(=O)=O)ccc21 | 1.57 | > 100 | > 40
18 | Cc1ccc(-c2ccc(/C=N/c3ncn[nH]3)o2)cc1Cl | 30.2 | > 100 | –
19 | O=[N+]([O-])c1ncccc1Oc1nc(-c2cccnc2)nc2ccccc12 | 7.07 | > 100 | –
20 | CCOC(=O)c1ccc(NC(=O)CCNC(=O)c2ccc([N+](=O)[O-])cc2)cc1 | – | > 100 | –
21 | COc1ccc(OC(=O)c2cnn(-c3ccccc3)c2C)cc1 | 71.2 | > 100 | –

Row | SMILES | IC50 [µM] | IC90 [µM] | CC50 [µM]
22 | COc1ccc(N2Cc3ccccc3C2)cc1Cl | – | > 100 | –
23 | Fc1ccc(Sc2nc(-c3ccccc3)nnc2C(F)(F)F)cc1 | 90.4 | > 100 | > 40
24 | COc1ccc(N/C=C2\CCOC2=O)cc1 | – | > 100 | –
25 | c1ccc(CC2CCN(c3nc4ccccc4n4cnnc34)CC2)cc1 | 1.77 | 3.44 | > 40
26 | COc1ccc(Br)cc1C(=O)Nc1ccccc1N1CCN(C(=O)c2ccccc2)CC1 | 16.7 | > 100 | > 40
27 | N=c1n(CCN2CCCCC2)c2ccccc2n1CC(=O)c1ccc(Cl)c(Cl)c1 | 8.28 | 10.5 | 19.8
28 | Cc1ccccc1N1CCN(C2=NC(=O)/C(=C\c3cccs3)S2)CC1 | 14.2 | 21 | > 40
29 | Cc1c2c(nc3ccccc13)CCC(C)C2 (stereo unspecified) | 16.6 | 40.6 | –
30 | CN(C)c1ccc(/C=C/C=C2/C(=O)NC(=O)N(c3ccccc3)C2=O)cc1 | 2.5 | 4.66 | > 40
31 | CC(C)(C)Nc1nc(NC(C)(C)C)nc(-n2ccnc2)n1 | 11.4 | 13.1 | –
32 | CCCOC(=O)c1ccc(NC(=O)C(=O)NCCN(CC)CC)cc1 | 53.1 | > 100 | –
33 | O=C1C(NS(=O)(=O)c2cccs2)=C(N2CCN(c3cccc(C(F)(F)F)c3)CC2)C(=O)c2ccccc21 | 4.12 | 7.38 | > 40
34 | CCOC(=O)N1CCN(C(=O)CSc2nc(-c3cccc(C)c3)ns2)CC1 | 0.734 | 0.828 | > 40
35 | CCOC(=O)CSc1nnc(-c2ccc(OC)cc2OC)o1 | 1.24 | 2.38 | –
36 | O=C(OCC(=O)N1CCc2ccccc21)c1ccc(Cl)nc1 | 14.2 | > 100 | –
37 | CN(C)CCCNc1cc(C(C)(C)C)nc2c(-c3ccc(Cl)cc3)cnn12 | 0.874 | 1.37 | 9.25
38 | CN1CCN(c2ccccc2NC(=O)c2cc3c(s2)-c2ccccc2OC3)CC1 | 8.62 | 17.7 | 10.7
39 | COc1cc(NS(=O)(=O)c2ccc(N)cc2)ncn1 | 6.02 | 12.2 | –
40 | CCOC(=O)CSc1ccc(-c2nc3cc(C)c(C)cc3[nH]2)cn1 | 1.09 | 2.24 | –
41 | COc1cc(-c2nc3ccc4ccccc4c3c3c2CCC3)cc(OC)c1O | 13.1 | 18.8 | > 40
42 | CC(C)OC(=O)c1cc(C(=O)c2cc(Cl)ccc2O)coc1=N | 28.2 | > 100 | –

Row | SMILES | IC50 [µM] | IC90 [µM] | CC50 [µM]
43 | Cc1ccc2nc(/N=C(\N)NC(=O)NC3CCCCC3)nc(C)c2c1 | 5.92 | 6.73 | 25.3
44 | CCOc1ccc2nc(NC(=O)c3cnc(C)cn3)sc2c1 | 4.76 | > 100 | 40
45 | COc1ccc(-c2nnc(SCC(=O)Nc3cc(C)on3)o2)cc1 | 3.86 | 6.19 | > 40
46 | O=C1OC(/C(=C\Nc2cc(Cl)ccc2O)[N+](=O)[O-])c2ccccc21 (stereo unspecified) | 57.2 | > 100 | > 40
47 | CCc1ccc2[nH]c(O)c(N=Nc3nc(-c4ccccc4)cs3)c2c1 | 1.81 | 3.44 | 37
48 | CCOc1ccc(NC(C)c2cc(Cl)ccc2O)cc1 (stereo unspecified) | 10.5 | > 100 | –
49 | Cc1cc(NCCCn2ccnc2)n2nc(-c3ccc(Cl)cc3)cc2n1 | 11.1 | 15.8 | > 40
50 | Cc1ccc(C(C)C)c(OCc2nn(CC(=O)c3ccc(OC(F)F)cc3)c3[n+]2CCCCC3)c1 | 1.07 | 1.46 | > 40
51 | Cn1c(-c2ccccc2)c(C(=O)CCl)c2ccccc21 | 1.69 | 4.57 | 4.07
52 | CCN(CC)CCOC(=O)c1ccc(N/C=C(/C#N)c2nc(-c3ccc4c(c3)OCO4)cs2)cc1 | 13.5 | 22.6 | 7.2
53 | COc1ccc(C2CC(=O)N3C(=C2C#N)SCC3(O)c2ccccc2)cc1 (stereo unspecified) | 7 | 12 | > 40
54 | COc1cccc(-c2csc(N3CCN(C(=O)NC45CC6CC(CC(C6)C4)C5)CC3)n2)c1 | 1.09 | 1.92 | > 40
55 | Nc1nc(-c2ccccn2)nc(N)c1Cc1c(F)cccc1Cl | < 0.391 | 0.451 | 4.76
56 | O=[N+]([O-])c1cccn2cc(-c3ccc(Br)cc3)nc12 | 18.8 | > 100 | 27.1
57 | COc1ccc(CNCCC(c2ccc(F)cc2)c2ccc(OC(C)C)cc2)cc1OC (stereo unspecified) | 15.2 | 20.8 | 15.4
58 | COc1cc(CNCCc2ccccc2)cc(Cl)c1OCc1ccccc1 | 8.64 | 11 | 27.8
59 | CCCOC(=O)c1ccc(NC(=O)Oc2ccccc2)cc1 | 4.53 | > 100 | –
60 | Cc1sc2nc(CN3CCOCC3)[nH]c(=S)c2c1C | 13.3 | > 100 | > 40
61 | CCOc1ccc2nc(NC(=O)CSc3nnnn3C3CCCCC3)sc2c1 | 56.4 | > 100 | –
62 | COc1ccc(CCNc2cc(C)nc3c(-c4ccccc4)c(C)nn23)cc1OC | 3.56 | 8.82 | –
63 | O=C(COC(=O)/C=C/c1nc2ccccc2s1)Nc1cccc(Cl)c1Cl | – | > 100 | –

Row | SMILES | IC50 [µM] | IC90 [µM] | CC50 [µM]
64 | COc1cccc(CNc2cnc3ccccc3c2)c1O | 28.6 | > 100 | –
65 | CCCCCCCCCCNC(=O)C(=O)Nc1ccccn1 | 6.97 | > 100 | –
66 | O=C(Nc1nnc(-c2cccs2)o1)c1cccc(C(F)(F)F)c1 | < 0.391 | 11.9 | 20.6
67 | CCCCc1ccc(NC(=O)c2cnccn2)cc1 | 52.1 | > 100 | > 40
68 | c1ccc(-c2nc(N3CCCCCC3)c3ccccc3n2)nc1 | 0.304 | 0.318 | 4.21
69 | CSc1nc2ccc(NS(=O)(=O)c3cccc(Cl)c3Cl)cc2s1 | – | > 100 | –
70 | Cc1cc(C(=O)CCl)c(C)n1Cc1ccco1 | 3.34 | 8.28 | 12.1
71 | CC1CC(C)CN(C(=O)c2ccc(CNc3c(N4CCCC4)c(=O)c3=O)cc2)C1 (stereo unspecified) | 1.46 | 1.64 | –
72 | CSc1ccc2c(c1)C(N1CCN(C)CC1)Cc1ccccc1S2 (stereo unspecified) | 8.54 | 10.9 | 20.9
73 | CCOC(=O)c1ccc(NC(=O)N2CCN(Cc3ccccc3)CC2)cc1 | – | > 100 | –
74 | Cc1ccc(CNCC(O)(c2ccccc2)c2ccc(Cl)cc2)cc1 (stereo unspecified) | 8.17 | 10.9 | > 40
75 | CCC(=O)Nc1nc2ccccc2n1Cc1ccccc1C | 1.47 | > 100 | > 40
76 | Cc1c2ccncc2c(C)c2c1[nH]c1ccccc12 | 0.465 | 0.667 | 0.793
77 | COc1cc(OC)c2cc[nH]c2c1 | – | > 100 | –
78 | CSc1nc2ccc(NC(=O)C3CC(=O)N(Cc4ccccc4)C3)cc2s1 (stereo unspecified) | 5.17 | 7.75 | –
79 | Cc1[nH]n2c(=O)c3c(nc2c1-c1ccccc1)CCCC3 | 2.89 | 4.05 | 22.8
80 | O=C(Nc1ccc(Oc2ccccc2)cc1)C1CC1 | 14 | > 100 | > 40
81 | COc1cccc(CNc2ccccc2O)c1OCc1ccccc1F | – | > 100 | > 40
82 | Clc1ccc(OCCCNCc2ccccc2)c(Br)c1 | 23.2 | 25.1 | > 40
83 | Cc1ccc(C(=O)N2CCN(c3ccc(NC(=O)COc4ccccc4C)cc3)CC2)cc1 | 9.58 | > 100 | > 40

Source: PubChem BioAssay AID1626 (SRMLSC, 2009)
